Results: publication PMC9150124, “Design of a Potent, Selective, and Brain-Penetrant Inhibitor of Wnt-Deactivating Enzyme Notum by Optimization of a Crystallographic Fragment Hit” (Journal of Medicinal Chemistry, 2022)
Values after ≈ are worked out from the molar mass of the structure shown. Values joined by “and” are separate entries in the source; they are usually repeats but may differ in a detail not shown here. Equal values may be shown once.

Key:
[1] = mouse PK, comparable study; cited from earlier work
[2] = Brain tissue binding, rapid equilibrium dialysis; type: in vitro ADME, rat
Procedure: Method: rapid equilibrium dialysis.
Test System Mouse Brain Homogenate 10% w/v in PBS
Incubation Time 5 h (mouse) or 4 h (rat)
No. of Replicates Two (mouse) or three (rat)
Buffer Phosphate buffer saline, pH 7.4
% Unbound in brain % Bound in brain %
Compound Species / Matrix homogenate SD homogenate Recovery

[3] = biological target: T1, human Notum (81–451 Cys330Ser) (Homo sapiens, UniProt Q6P988, C330S); experiment: Notum OPTS biochemical assay
T1 construct: human Notum (81–451 Cys330Ser) as the enzyme; made in house
T1 sequence (Q6P988 81-451 C330S): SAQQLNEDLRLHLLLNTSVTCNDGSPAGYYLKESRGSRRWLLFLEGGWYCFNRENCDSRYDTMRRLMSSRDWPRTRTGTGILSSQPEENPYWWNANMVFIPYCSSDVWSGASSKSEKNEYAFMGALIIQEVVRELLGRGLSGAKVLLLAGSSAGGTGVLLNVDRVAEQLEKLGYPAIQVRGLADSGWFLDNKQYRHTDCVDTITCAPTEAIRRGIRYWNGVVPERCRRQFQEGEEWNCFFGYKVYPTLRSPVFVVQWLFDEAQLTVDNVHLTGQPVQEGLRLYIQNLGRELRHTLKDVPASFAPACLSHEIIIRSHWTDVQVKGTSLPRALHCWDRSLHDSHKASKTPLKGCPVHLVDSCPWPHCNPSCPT
Excerpt: The optimization of 6 to deliver this profile was directed at three principle areas of these hit structures: (1) aryl ring 7 (Table 1); (2) the C4 substituent on triazole 8 (Table 2); and (3) further fine-tuning of the triazole 9 (Table 3). […] This assay was used to establish SAR and to identify preferred leads for additional studies.
Methods have been described in detail elsewhere.[23]−[26] Representative concentration–response curves are provided in the Supporting Information.

[4] = Aqueous solubility in PBS (pH 7.4); type: physicochemical; details: for solubility: PBS pH 7.4, read-out: aq. solubility; for solubility thermodynamic: PBS, pH 7.4, n = 2, read-out: Thermodynamic Solubility @ RT, mean
Excerpt: (§1) Biosciences (Hyderabad, India) or WuXi AppTec (Shanghai, China).
(§2) Table S1: Representative assay protocol

[5] = Stability in mouse liver microsomes; type: in vitro ADME; set-up: MLM Stability Cli mean: unit not given here; details: for half-life: mouse, liver microsomes, read-out: MLM Stability t1/2
[6] = Stability in human liver microsomes; type: in vitro ADME; set-up: HLM Stability Cli mean: unit not given here; details: for half-life: human, liver microsomes, read-out: HLM Stability t1/2
in vivo = experiment: in vivo; set-up: species or system mouse; details: mouse, p.o. 10 mg/kg
Procedure: Mouse pharmacokinetic (PK) data was generated at Charles River Laboratories (Groningen, Netherlands) and GVK
Biosciences (Hyderabad, India). Rat PK was performed by WuXi AppTec (Shanghai, China).
Animal Testing Declaration: All in life phase studies were conducted in accordance with local Ethics Review
process. See, statements from each company.

in vitro = details: dog
MDR1 (P-gp) = experiment: in vitro; details: dog
P-gp (MDR1) = experiment: in vitro; details: dog
[7] = Metabolic stability in mouse hepatocytes
[8] = Distribution coefficient LogD7.4 (shake flask); type: physicochemical; details: for logD at 1 h: 1-octanol/10 mM phosphate buffer, pH 7.4, octanol/buffer
Procedure: Molecular properties (MW, clogP, and TPSA) were calculated with ChemDraw Professional v16.0.1.4(77). Distribution coefficients (LogD7.4) were measured using the shake flask method.
as §1
A. Distribution coefficient (LogD7.4):
as §2
Octanol/buffer partition coefficient. 500 µL of organic phase (1-octanol) was added to each well of a 2 mL deep well plate, followed by 500 µL of buffer and 15 µL of test substance was added. The plate was vortexed for 1 hr on a plate shaker at 1200 Method rpm. After incubation, the samples were allowed to equilibrate for 20 min and then centrifuged at 4000 rpm for 30 min for complete phase separation and analysed by […]
Buffer 10 mM phosphate buffer
Test compound concentration 0.15 mM
End Point Fractional distribution of test compound between octanol and buffer […]
B. Aqueous solubility at pH 7.4:
Thermodynamic Solubility @ RT

[9] = MDCK-MDR1, MDCK-MDR1 AB Papp, apical to basal
[10] = MDCK-MDR1, MDCK-MDR1 BA Papp, basal to apical
[11] = MDCK-MDR1, MDR1-MDCKII A to B % Recovery
[12] = MDCK-MDR1, MDR1-MDCKII B to A % Recovery

solubility [4]	solubility thermodynamic [4] [µg/mL]	MLM Cli [5] [μL/min/mg protein]	half-life ([5]; Table S4) [h]	HLM Cli [6] [μL/min/mg protein]	half-life ([6]; Table S4) [h]	Papp (in vitro; [9]) [×10⁻⁶ cm/s]	Papp (in vitro; [10]) [×10⁻⁶ cm/s]	recovery (MDR1 (P-gp); [11]) [%]	recovery (MDR1 (P-gp); [12]) [%]	Papp (P-gp (MDR1); [9]) [×10⁻⁶ cm/s]	Papp (P-gp (MDR1); [10]) [×10⁻⁶ cm/s]	logD at 1 h [8]	Structure (SMILES)	further results
													Cc1c(C(F)(F)F)oc2ncnc(SCC(=O)N3CC(=O)N(C)C3)c12 [compound 3]	brain-to-plasma ratio Kp [1]: 0.29
													CC(C)NCC(O)COc1cccc2ccccc12 (stereo not drawn) [Propranolol, reference compound]	fraction unbound at 4 h, 2 µM ([2]; brain homogenate, pH 7.4, SD rat, 4 h): 0.026; recovery at 4 h, 2 µM ([2]; pH 7.4, SD rat brain homogenate): 78.2%; Brain binding, % bound ([2]; rat brain homogenate): 97.4%
210 µg/mL and 680 µM	213 (≈ 683 µM)	6.7	1.75	1.7	9.21	46	28	94.1	97.5	45.9	27.8		OCc1cn(-c2ccc(Cl)c(C(F)(F)F)c2Cl)nn1 [7y, ((2,4-Dichloro-3-(trifluoromethyl)phenyl)-1H-1,2,3-triazol-4-yl)methanol]	fold more active than hit 6b [3]: 50 fold; fold more active than unsubstituted phenyl 7a [3]: 10,000 fold; IC50 ([3]; OPTS substrate, mean, read-out: Notum IC50): 9.5 ± 0.2 nM; MLM Stability Cli mean ([5]; Table S4): 6.65; HLM Stability Cli mean ([6]; Table S4): 1.65; Kp (in vivo; male, C57/BL6, brain and plasma, po, AUC0–inf brain/plasma, total drug, read-out: brain-to-plasma ratio (Kp)): 1.2; AUC0–inf (in vivo; plasma): 150 ng·h/mL; Cmax (in vivo; plasma): 300 ng/mL; efflux ratio (P-gp (MDR1); MDCK-MDR1, MDCK-MDR1 efflux ratio (ER)): 0.61; mouse hepatocytes Cli [7]: 48 μL/min/10^6 cells; half-life ([7]; mouse, hepatocytes): 0.598 h
												-0.27	COCCc1ccc(OCC(O)CNC(C)C)cc1 (stereo not drawn) [Metoprolol, reference compound]	
100 µg/mL (≈ 410 µM)	104 (≈ 426 µM)	88	0.263	12	1.92	57	59	80.7	87.2	56.6	58.3	2.41	OCc1cn(-c2ccc(Cl)c(Cl)c2)nn1 [6b, ((3,4-Dichlorophenyl)-1H-1,2,3-triazol-4-yl)methanol]	LogD7.4 ([8]; octanol/buffer, pH 7.4): 2.4
